Assay [1] concerns the target Recombinant human DDR1 (aa440-876 containing a GST tag) (Homo sapiens (Human), UniProt Q08345). Nature of the assay: LanthaScreen Eu Kinase Binding Assay DDR1. The note with it: Kinase Tracer 178 5 nM, at least two independent replicates; for IC50: read-out: DDR1 pIC50 (converted). The gist of the method:
(§1)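 DDR1 (2.5 nM) or DDR2 (1.75 nM) was preincubated with compound 30 min at RT in 50 mM HEPES pH 7.3, 10 mM MgCl2, 1 mM EGTA, 0.01% Tween. Eu-anti-GST and Tracer 178 were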
(Time-resolved FRET reads energy transfer from a long-lived donor to a nearby acceptor.)

The target in assay [2] is Recombinant human DDR2 (aa427-855 containing a GST tag) (Homo sapiens (Human), UniProt Q16832). Nature of the assay: LanthaScreen Eu Kinase Binding Assay DDR2. The note with it: Kinase Tracer 178 10 nM, at least two independent replicates; for IC50: read-out: DDR2 pIC50 (converted). The gist of the method:
as §1

Molecules are shown by their SMILES.

Chain of Recombinant human DDR1 (aa440-876 containing a GST tag) (Q08345 other isoform, or with tags, fused parts or gaps): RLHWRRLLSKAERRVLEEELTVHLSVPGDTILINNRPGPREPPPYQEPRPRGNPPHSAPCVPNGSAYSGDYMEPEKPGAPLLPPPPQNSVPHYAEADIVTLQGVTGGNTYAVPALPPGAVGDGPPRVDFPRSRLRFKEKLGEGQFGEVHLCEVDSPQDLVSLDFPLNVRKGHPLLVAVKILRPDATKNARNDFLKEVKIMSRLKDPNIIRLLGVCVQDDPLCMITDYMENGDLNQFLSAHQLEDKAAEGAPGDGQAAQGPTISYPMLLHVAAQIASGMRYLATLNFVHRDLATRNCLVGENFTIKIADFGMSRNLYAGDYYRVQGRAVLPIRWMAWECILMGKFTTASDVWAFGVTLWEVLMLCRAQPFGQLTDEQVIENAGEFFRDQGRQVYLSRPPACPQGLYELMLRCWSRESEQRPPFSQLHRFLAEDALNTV
Chain of Recombinant human DDR2 (aa427-855 containing a GST tag) (Q16832 427-855): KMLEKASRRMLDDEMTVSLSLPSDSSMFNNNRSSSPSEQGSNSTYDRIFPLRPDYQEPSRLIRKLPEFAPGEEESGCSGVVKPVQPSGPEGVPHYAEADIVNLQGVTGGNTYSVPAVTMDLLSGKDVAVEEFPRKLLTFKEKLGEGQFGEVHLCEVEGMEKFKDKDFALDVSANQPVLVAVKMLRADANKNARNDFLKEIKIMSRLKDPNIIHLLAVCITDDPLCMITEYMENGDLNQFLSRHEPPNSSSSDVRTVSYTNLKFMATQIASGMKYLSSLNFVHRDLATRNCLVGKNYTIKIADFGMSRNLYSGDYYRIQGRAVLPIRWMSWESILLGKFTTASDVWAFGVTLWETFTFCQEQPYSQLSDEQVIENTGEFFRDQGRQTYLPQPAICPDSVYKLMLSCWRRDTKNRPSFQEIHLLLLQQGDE

Regarding `COc1cccc2c1n(-c1ccc(-c3cncc4c3cnn4C)cc1C)c(=O)n2CC(=O)NCC(F)(F)F` [Example 81, 2-[4-methoxy-3-[2-methyl-4-(1-methylpyrazolo[3,4-c]pyridin-4-yl)phenyl]-2-oxo-benzimidazol-1-yl]-N-(2,2,2-trifluoroethyl)acetamide], in assay [1], the “DDR1 pIC50” value is given as “D (pIC50≤6)”. In assay [2], the “DDR2 pIC50” value is “D (pIC50≤6)”.

With `Cc1cc(-c2cncc3c2cnn3C)ccc1-n1c(=O)n(CC(=O)N[C@@H](C)C(F)(F)F)c2cccc(C)c21` [Example 82, 2-[4-methyl-3-[2-methyl-4-(1-methylpyrazolo[3,4-c]pyridin-4-yl)phenyl]-2-oxo-benzimidazol-1-yl]-N-[(1S)-2,2,2-trifluoro-1-methyl-ethyl]acetamide], in assay [1], the “DDR1 pIC50” value is reported as “A (pIC50>8)”. Besides, the IC50 in assay [2] is 10 to 100 nM.

As for `Cc1cc(-c2cncc3c2cnn3C)ccc1-n1c(=O)n(CC(=O)NCC(F)(F)F)c2cccc(Cl)c21` [Example 83, 2-[4-chloro-3-[2-methyl-4-(1-methylpyrazolo[3,4-c]pyridin-4-yl)phenyl]-2-oxo-benzimidazol-1-yl]-N-(2,2,2-trifluoroethyl)acetamide], the “DDR1 pIC50” value in assay [1] was “A (pIC50>8)”. In assay [2], the IC50 was 100 to 1000 nM.

In the case of `Cc1cc(-c2cncc3c2cnn3C)ccc1-n1c(=O)n(CC(=O)N[C@@H](C)C(F)(F)F)c2cccc(Cl)c21` [Example 84, 2-[4-chloro-3-[2-methyl-4-(1-methylpyrazolo[3,4-c]pyridin-4-yl)phenyl]-2-oxo-benzimidazol-1-yl]-N-[(1S)-2,2,2-trifluoro-1-methyl-ethyl]acetamide], the “DDR1 pIC50” value in assay [1] was “A (pIC50>8)”. For the same compound, in assay [2], the IC50 is 10 to 100 nM.

With `COc1cccc2c1n(-c1ccc(-c3cncc4c3cnn4C)cc1)c(=O)n2CC(=O)N[C@@H](C)C(F)(F)F` [Example 85, 2-[4-methoxy-3-[4-(1-methylpyrazolo[3,4-c]pyridin-4-yl)phenyl]-2-oxo-benzimidazol-1-yl]-N-[(1S)-2,2,2-trifluoro-1-methyl-ethyl]acetamide], in assay [1], the “DDR1 pIC50” value is “D (pIC50≤6)”. For the same compound, the “DDR2 pIC50” value in assay [2] was “D (pIC50≤6)”.

With `Cn1ncc2c(-c3ccc(-n4c(=O)n(CC(=O)NCC(F)(F)F)c5cccc(F)c54)cc3)cncc21` [Example 86, 2-[4-fluoro-3-[4-(1-methylpyrazolo[3,4-c]pyridin-4-yl)phenyl]-2-oxo-benzimidazol-1-yl]-N-(2,2,2-trifluoroethyl)acetamide], the IC50 in assay [1] was 100 to 1000 nM. Further, the “DDR2 pIC50” value in assay [2] is on record as “D (pIC50≤6)”.

With `Cn1ncc2c(-c3ccc(-n4c(=O)n(CC(=O)NCC(F)(F)F)c5ccccc54)c(Cl)c3)cncc21` [Example 87, 2-[3-[2-chloro-4-(1-methylpyrazolo[3,4-c]pyridin-4-yl)phenyl]-2-oxo-benzimidazol-1-yl]-N-(2,2,2-trifluoroethyl)acetamide], the “DDR1 pIC50” value in assay [1] is “A (pIC50>8)”. Further, the “DDR2 pIC50” value in assay [2] was “D (pIC50≤6)”.

For `COc1cc(-c2cncc3c2cnn3C)ccc1-n1c(=O)n(CC(=O)NCC(F)(F)F)c2ccccc21` [Example 88, 2-[3-[2-methoxy-4-(1-methylpyrazolo[3,4-c]pyridin-4-yl)phenyl]-2-oxo-benzimidazol-1-yl]-N-(2,2,2-trifluoroethyl)acetamide], the IC50 in assay [1] was 100 to 1000 nM. The “DDR2 pIC50” value in assay [2] is “D (pIC50≤6)”.

For `Cn1ncc2c(-c3cc(F)c(-n4c(=O)n(CC(=O)NCC(F)(F)F)c5ccccc54)c(F)c3)cncc21` [Example 89, 2-[3-[2,6-difluoro-4-(1-methylpyrazolo[3,4-c]pyridin-4-yl)phenyl]-2-oxo-benzimidazol-1-yl]-N-(2,2,2-trifluoroethyl)acetamide], the IC50 in assay [1] was 10 to 100 nM. In assay [2], the “DDR2 pIC50” value is “D (pIC50≤6)”.

With `Cc1cc(-c2cncc3c2cnn3C)cc(C)c1-n1c(=O)n(CC(=O)NCC(F)(F)F)c2ccccc21` [Example 90, 2-[3-[2,6-dimethyl-4-(1-methylpyrazolo[3,4-c]pyridin-4-yl)phenyl]-2-oxo-benzimidazol-1-yl]-N-(2,2,2-trifluoroethyl)acetamide], the IC50 in assay [1] was 100 to 1000 nM. Moreover, in assay [2], the “DDR2 pIC50” value is “D (pIC50≤6)”.
